Test results as given in the supplement of paper PMC10132981, “Formate overflow drives toxic folate trapping in MTHFD1 inhibited cancer cells” (Nature Metabolism, 2023).

Assays:
[1] = test system: SW620; assay: cell viability relative to lowest-dose well (resazurin, 96 h); higher = more viable; settings: RPMI + 10% FBS
Outline: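 Compounds from 10 mM DMSO stocks were dispensed as dilution series onto HCT116 (500 cells/well) or SW620 (1,000 cells/well) cells growing in 384-well plates in 50 µl RPMI, 10% FBS and a metabolite supplement. Plates were incubated 96 h at 37 °C, 5% CO2, then resazurin (10 µg ml^−1) was added and its conversion to resorufin read by fluorescence at 595 nm after 5 h. Viability is shown as percent of the lowest-dose well for independent replicate cultures. Viability was read by resazurin-to-resorufin conversion and normalised to the lowest-dose vehicle well (=100%).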

[2] = test system: SW620 MTHFD2 -/-; assay: EC50 for viability (resazurin, 96 h); settings: RPMI+GlutaMAX (5% dFBS, 1% P/S)
[3] = test system: HCT116; assay: EC50 for viability (resazurin, 96 h); settings: RPMI+GlutaMAX (10% FBS, 1% P/S)
[4] = test system: SW620 WT; assay: EC50 for viability (resazurin, 96 h); settings: RPMI+GlutaMAX (5% dFBS, 1% P/S)
[5] = test system: SW620 MTHFD2-/-; assay: EC50 for viability (resazurin, 96 h); settings: RPMI+GlutaMAX (5% dFBS, 1% P/S)
[6] = test system: SW620; assay: EC50 for viability (resazurin, 96 h)

CN(Cc1cnc2nc(N)nc(N)c2n1)c1ccc(C(=O)N[C@@H](CCC(=O)O)C(=O)O)cc1 [methotrexate]
Settings | EC50 for viability [nM] | cell viability [%]
[1], 0.001 µM, metabolite supplement: 50uM thymidine | – | 96.3
[1], 0.001 µM, metabolite supplement: 50uM thymidine + 250uM hypoxanthine | – | 95.7
[1], 0.001 µM, metabolite supplement: 250uM hypoxanthine | – | 98.8
[1], 0.001 µM, metabolite supplement: vehicle | – | 98
[1], 0.00278 µM, metabolite supplement: 50uM thymidine | – | 95
[1], 0.00278 µM, metabolite supplement: 50uM thymidine + 250uM hypoxanthine | – | 94.5
[1], 0.00278 µM, metabolite supplement: 250uM hypoxanthine | – | 99.5
[1], 0.00278 µM, metabolite supplement: vehicle | – | 96.3
[1], 0.00774 µM, metabolite supplement: 50uM thymidine | – | 76.7
[1], 0.00774 µM, metabolite supplement: 50uM thymidine + 250uM hypoxanthine | – | 93.4
[1], 0.00774 µM, metabolite supplement: 250uM hypoxanthine | – | 96.2
[1], 0.00774 µM, metabolite supplement: vehicle | – | 79.3
[1], 0.0215 µM, metabolite supplement: 50uM thymidine | – | 42.2
[1], 0.0215 µM, metabolite supplement: 50uM thymidine + 250uM hypoxanthine | – | 97.4
[1], 0.0215 µM, metabolite supplement: 250uM hypoxanthine | – | 75.1
[1], 0.0215 µM, metabolite supplement: vehicle | – | 60.4
[1], 0.0599 µM, metabolite supplement: 50uM thymidine | – | 34.3
[1], 0.0599 µM, metabolite supplement: 50uM thymidine + 250uM hypoxanthine | – | 90.2
[1], 0.0599 µM, metabolite supplement: 250uM hypoxanthine | – | 32.8
[1], 0.0599 µM, metabolite supplement: vehicle | – | 33.7
[1], 0.167 µM, metabolite supplement: 50uM thymidine | – | 34.8
[1], 0.167 µM, metabolite supplement: 50uM thymidine + 250uM hypoxanthine | – | 96.4
[1], 0.167 µM, metabolite supplement: 250uM hypoxanthine | – | 28
[1], 0.167 µM, metabolite supplement: vehicle | – | 26.9
[1], 0.464 µM, metabolite supplement: 50uM thymidine | – | 33.1
[1], 0.464 µM, metabolite supplement: 50uM thymidine + 250uM hypoxanthine | – | 94.7
[1], 0.464 µM, metabolite supplement: 250uM hypoxanthine | – | 28.3
[1], 0.464 µM, metabolite supplement: vehicle | – | 27
[1], 1.29 µM, metabolite supplement: 50uM thymidine | – | 32.6
[1], 1.29 µM, metabolite supplement: 50uM thymidine + 250uM hypoxanthine | – | 87.5
[1], 1.29 µM, metabolite supplement: 250uM hypoxanthine | – | 28.4
[1], 1.29 µM, metabolite supplement: vehicle | – | 26.4
[1], 3.59 µM, metabolite supplement: 50uM thymidine | – | 30.9
[1], 3.59 µM, metabolite supplement: 50uM thymidine + 250uM hypoxanthine | – | 83.6
[1], 3.59 µM, metabolite supplement: 250uM hypoxanthine | – | 29.6
[1], 3.59 µM, metabolite supplement: vehicle | – | 28.3
[1], 10 µM, metabolite supplement: 50uM thymidine | – | 30.5
[1], 10 µM, metabolite supplement: 50uM thymidine + 250uM hypoxanthine | – | 83.6
[1], 10 µM, metabolite supplement: 250uM hypoxanthine | – | 29.5
[1], 10 µM, metabolite supplement: vehicle | – | 29.3
[6], HPLM (5% dFBS, 1% P/S), metabolite supplement: Vehicle | 27 | –
[6], RPMI+GlutaMAX (5% dFBS, 1% P/S), metabolite supplement: 50 µM Hypoxanthine | 21.8 | –
[6], RPMI+GlutaMAX (5% dFBS, 1% P/S), metabolite supplement: Vehicle | 8.7 | –
[6], RPMI+GlutaMAX (10% FBS, 1% P/S), metabolite supplement: Folic acid | 96.3 | –
[6], RPMI+GlutaMAX (10% FBS, 1% P/S), metabolite supplement: Folinic acid | 366 | –
[6], RPMI+GlutaMAX (10% FBS, 1% P/S), metabolite supplement: Hypoxanthine | 26.2 | –
[6], RPMI+GlutaMAX (10% FBS, 1% P/S), metabolite supplement: Thymidine | 12.4 | –
[6], RPMI+GlutaMAX (10% FBS, 1% P/S), metabolite supplement: Thymidine + Folic acid | 81.8 | –
[6], RPMI+GlutaMAX (10% FBS, 1% P/S), metabolite supplement: Thymidine + Folinic acid | 388 | –
[6], RPMI+GlutaMAX (10% FBS, 1% P/S), metabolite supplement: Vehicle | 11.6 | –

Settings | EC50 for viability [nM]
[2], metabolite supplement: Hypoxanthine | 16.7
[2], metabolite supplement: Sodium Formate | 10.6
[2], metabolite supplement: Thymidine | 2.67
[2], metabolite supplement: Thymidine + Sodium Formate | 9.38
[2], metabolite supplement: Vehicle | 2.33
[3], metabolite supplement: Hypoxanthine | 20.3
[3], metabolite supplement: Thymidine | 12.6
[4], metabolite supplement: Adenine | 31
[4], metabolite supplement: Adenosine | 34.5
[4], metabolite supplement: Guanosine | 19.8
[4], metabolite supplement: Hypoxanthine | 21.1
[4], metabolite supplement: Hypoxanthine + AICAr 10 µM | 18.1
[4], metabolite supplement: Hypoxanthine + AICAr 30 µM | 21.9
[4], metabolite supplement: Hypoxanthine + AICAr 50 µM | 14.2
[4], metabolite supplement: Hypoxanthine + AICAr 100 µM | 11.3
[4], metabolite supplement: Sodium Formate | 6.74
[4], metabolite supplement: Thymidine | 8.47
[4], metabolite supplement: Thymidine + Sodium Formate | 6.79
[4], metabolite supplement: Vehicle | 6.53
[5], metabolite supplement: Formate | 2.14
[5], metabolite supplement: Hypoxanthine | 12
[5], metabolite supplement: Hypoxanthine + Formate | 12.9
